Patent US11130750B2, “Calcium channel inhibitors” (Cavion, Inc., priority 2017, dated 2021)

Test system: Human Glioma cancer cell line U251
Assay: Cell Proliferation Assay by CCK-8 Reagent
Type: cell-based
Details: Homo sapiens, U-251, 72 h, U251 cells, 72 hours incubation, CCK-8, % viability vs vehicle control
Protocol: Human Glioma cancer cell line U251 was maintained in DMEM (Gibco, Cat #10569-10) supplemented with 10% fetal bovine serum inactivated at 56° C. (Gibco, Cat #10082-147), 100 U/mL penicillin, and 100 μg/mL streptomycin (Gibco, Cat #15140-122) at 37° C. and 1% MEM non-essential amino acid (Sigma, Cat #M7145) in a humid atmosphere containing 5% CO2. The cells were seeded at 2.5×10^3 cells/well in a 96 well plate (BD falcon, Cat #353072) with 200 pt volume/well and kept in 37° C./5% CO2 incubator for 0/N incubation. The seeding density was optimized previously based on growth curve. On the next day, plated cells were incubated with each test compounds at eight different concentrations (100, 50, 25, 12.5, 6.25, 3.125, 1.5 and 0.78) in triplicates. DMSO was used as a Vehicle control and Culture medium was used as blank control for the assay in each plate. The percentage of DMSO was kept uniform across the plate as <1%. The compound treated cells were incubated in 37° C./5% CO2 incubator for 72 hours. After incubation period, […] CCK-8 reagent (Dojindo, Cat #CK04) was added in all the wells and plate was kept in 37° C./5% CO2 incubator for 3 hours. After CCK-8 incubation, absorbance was measured @ 450 nm using Spectrophotometer (BMG, Omega Polar Star). % Viability values at each concentration were calculated with respect to Vehicle control and EC50 values were calculated using graph pad prism software and are shown in Table A.

Row | Compound | EC50 [µM]
1 | CNC(=O)OC1(CCN(C)CCCc2nc3c(C)ccc(C)c3[nH]2)COc2cc(F)ccc2[C@@H]1C(C)C (stereo partly drawn) [Example 21A, (4S)-3-(2-((3-(4,7-Dimethyl-1H-benzo[d]imidazol-2-yl)propyl)(methyl)amino)ethyl)-7-fluoro-4-isopropylchroman-3-yl methylcarbamate] | 7
2 | CC(C)[C@H]1c2ccc(F)cc2CC[C@@]1(CCN(C)CCC1(c2nc3ccccc3[nH]2)CC1)OC(=O)N1CCOCC1 [Example 19, (1S,2S)-2-(2-((2-(1-(1H-Benzo[d]imidazol-2-yl)cyclopropyl)ethyl)(methyl)amino)ethyl)-6-fluoro-1-isopropyl-1,2,3,4-tetrahydronaphthalen-2-yl morpholine-4-carboxylate] | 23
3 | CNC(=O)O[C@]1(CCN(C)CCC(C)(C)c2nc3ccccc3[nH]2)CCc2cc(F)ccc2[C@@H]1C(C)C [Example 10, (1S,2S)-2-(2-((3-(1H-Benzo[d]imidazol-2-yl)-3-methylbutyl)(methyl)amino)ethyl)-6-fluoro-1-isopropyl-1,2,3,4-tetrahydronaphthalen-2-yl methylcarbamate] | 9.5
4 | Cc1ccc(C)c2[nH]c(CCCN(C)CC[C@@]3(OC(=O)N(C)C)CCc4cc(F)ccc4[C@@H]3C(C)C)nc12 [Example 16, (1S,2S)-2-(2-((3-(4,7-dimethyl-1H-benzo[d]imidazol-2-yl)propyl)(methyl)amino)ethyl)-6-fluoro-1-isopropyl-1,2,3,4-tetrahydronaphthalen-2-yl dimethylcarbamate] | 6
5 | CNC(=O)O[C@]1(CCN(C)CCCc2nc3c(C)ccc(C)c3[nH]2)CCc2cc(F)ccc2[C@@H]1C(C)C [Example 3, (1S,2S)-2-(2-((3-(4,7-Dimethyl-1H-benzo[d]imidazol-2-yl)propyl)(methyl)amino)ethyl)-6-fluoro-1-isopropyl-1,2,3,4-tetrahydronaphthalen-2-yl methylcarbamate] | 6
6 | CC(C)[C@H]1c2ccc(F)cc2CC[C@@]1(CCN(C)CCCc1nc2c(C(F)(F)F)cc(C(F)(F)F)cc2[nH]1)OC(=O)N1CCOCC1 [Example 8, (1S,2S)-2-(2-((3-(4,6-Bis(trifluoromethyl)-1H-benzo[d]imidazol-2-yl)propyl)(methyl)amino)ethyl)-6-fluoro-1-isopropyl-1,2,3,4-tetrahydronaphthalen-2-yl morpholine-4-carboxylate] | 6.8
7 | COc1ccc(Cl)c2[nH]c(CCCN(C)CC[C@@]3(OC(=O)N(C)C)CCc4cc(F)ccc4[C@@H]3C(C)C)nc12 [Example 7, (1S,2S)-2-(2-((3-(7-Chloro-4-methoxy-1H-benzo[d]imidazol-2-yl)propyl)(methyl)amino)ethyl)-6-fluoro-1-isopropyl-1,2,3,4-tetrahydronaphthalen-2-yl dimethylcarbamate] | 7.7
8 | Cc1ccc(C)c2[nH]c(CCCN(C)CC[C@]3(OC(=O)N4CCOCC4)CCc4cc(F)ccc4[C@H]3C(C)C)nc12 [Example 17, (1R,2R)-2-(2-((3-(4,7-Dimethyl-1H-benzo[d]imidazol-2-yl)propyl)(methyl)amino)ethyl)-6-fluoro-1-isopropyl-1,2,3,4-tetrahydronaphthalen-2-yl morpholine-4-carboxylate] | 4.3
9 | COC(=O)O[C@]1(CCN(C)CCCc2nc3ccccc3[nH]2)CCc2cc(F)ccc2[C@@H]1C(C)C [Example 2, (1S,2S)-2-(2-((3-(1H-Benzo[d]imidazol-2-yl)propyl)(methyl)amino)ethyl)-6-fluoro-1-isopropyl-1,2,3,4-tetrahydronaphthalen-2-yl methylcarbonate] | 10
10 | CC(C)[C@H]1c2ccc(F)cc2CC[C@@]1(CCN(C)CCC(C)(C)c1nc2ccccc2[nH]1)OC(=O)NCCN(C)C [Example 11, (1S,2S)-2-(2-((3-(1H-Benzo[d]imidazol-2-yl)-3-methylbutyl)(methyl)amino)ethyl)-6-fluoro-1-isopropyl-1,2,3,4-tetrahydronaphthalen-2-yl (2-(dimethylamino)ethyl)carbamate] | 2.5
11 | CNC(=O)O[C@]1(CCN(C)CCCc2nc3c(OC)ccc(OC)c3[nH]2)CCc2cc(F)ccc2[C@@H]1C(C)C [Example 5, (1S,2S)-2-(2-((3-(4,7-Dimethoxy-1H-benzo[d]imidazol-2-yl)propyl)(methyl)amino)ethyl)-6-fluoro-1-isopropyl-1,2,3,4-tetrahydronaphthalen-2-yl methylcarbamate] | 10
12 | COCC(=O)O[C@]1(CCN(C)CCCc2nc3ccccc3[nH]2)CCc2cc(F)ccc2[C@@H]1C(C)C [Mibefradil, mibefradil, reference compound] | 12
13 | CC(C)[C@H]1c2ccc(F)cc2CC[C@@]1(CCN(C)CCC(C)(C)c1nc2ccccc2[nH]1)OC(=O)N1CCOCC1 [Example 9, (1S,2S)-2-(2-((3-(1H-Benzo[d]imidazol-2-yl)-3-methylbutyl)(methyl)amino)ethyl)-6-fluoro-1-isopropyl-1,2,3,4-tetrahydronaphthalen-2-yl morpholine-4-carboxylate] | 68
14 | CCN(CC)CCNC(=O)O[C@]1(CCN(C)CCC(C)(C)c2nc3ccccc3[nH]2)CCc2cc(F)ccc2[C@@H]1C(C)C [Example 14, (1S,2S)-2-(2-((3-(1H-Benzo[d]imidazol-2-yl)-3-methylbutyl)(methyl)amino)ethyl)-6-fluoro-1-isopropyl-1,2,3,4-tetrahydronaphthalen-2-yl (2-(diethylamino)ethyl)carbamate] | 3.8
15 | Cc1ccc(C)c2[nH]c(CCCN(C)CC[C@@]3(OC(=O)NCCN(C)C)CCc4cc(F)ccc4[C@@H]3C(C)C)nc12 [Example 4, (1S,2S)-2-(2-((3-(4,7-Dimethyl-1H-benzo[d]imidazol-2-yl)propyl)(methyl)amino)ethyl)-6-fluoro-1-isopropyl-1,2,3,4-tetrahydronaphthalen-2-yl (2-(dimethylamino)ethyl)carbamate] | 2.5
16 | CNC(=O)O[C@]1(CCN(C)CCCc2nc3ccccc3[nH]2)CCc2cc(F)ccc2[C@@H]1C(C)C [Example 1, (1S,2S)-2-(2-((3-(1H-Benzo[d]imidazol-2-yl)propyl)(methyl)amino)ethyl)-6-fluoro-1-isopropyl-1,2,3,4-tetrahydronaphthalen-2-yl methylcarbamate] | 6
17 | COCCNC(=O)O[C@]1(CCN(C)CCCc2nc3c(OC)ccc(OC)c3[nH]2)CCc2cc(F)ccc2[C@@H]1C(C)C [Example 6, (1S,2S)-2-(2-((3-(4,7-Dimethoxy-1H-benzo[d]imidazol-2-yl)propyl)(methyl)amino)ethyl)-6-fluoro-1-isopropyl-1,2,3,4-tetrahydronaphthalen-2-yl (2-methoxyethyl)carbamate] | 15
18 | CC(C)[C@H]1c2ccc(F)cc2CC[C@@]1(CCN(C)CCC(C)(C)c1nc2ccccc2[nH]1)OC(=O)NCCN1CCCC1 [Example 13, (1S,2S)-2-(2-((3-(1H-Benzo[d]imidazol-2-yl)-3-methylbutyl)(methyl)amino)ethyl)-6-fluoro-1-isopropyl-1,2,3,4-tetrahydronaphthalen-2-yl (2-(pyrrolidin-1-yl)ethyl)carbamate] | 4.6
19 | COCCNC(=O)O[C@]1(CCN(C)CCC(C)(C)c2nc3ccccc3[nH]2)CCc2cc(F)ccc2[C@@H]1C(C)C [Example 12, (1S,2S)-2-(2-((3-(1H-Benzo[d]imidazol-2-yl)-3-methylbutyl)(methyl)amino)ethyl)-6-fluoro-1-isopropyl-1,2,3,4-tetrahydronaphthalen-2-yl (2-methoxyethyl)carbamate] | 12

Same assay, conditions: U251 cells, 72 hours incubation, CCK-8, % viability vs vehicle control

Row | Compound | EC50 [µM]
20 | CNC(=O)OC1(CCN(C)CCCc2nc3c(C)ccc(C)c3[nH]2)COc2cc(F)ccc2[C@@H]1C(C)C (stereo partly drawn) [Example 21B, (4S)-3-(2-((3-(4,7-Dimethyl-1H-benzo[d]imidazol-2-yl)propyl)(methyl)amino)ethyl)-7-fluoro-4-isopropylchroman-3-yl methylcarbamate] | 9
21 | CNC(=O)OC1(CCN(C)CCCc2nc3ccccc3[nH]2)COc2cc(F)ccc2[C@@H]1C(C)C (single isomer, unassigned) [Example 20B] | 12
22 | CNC(=O)OC1(CCN(C)CCCc2nc3ccccc3[nH]2)COc2cc(F)ccc2[C@@H]1C(C)C (single isomer, unassigned) [Example 20A] | 54
